Experimental data reported in US6730792B2, “β3 adrenergic agonists” (Eli Lilly and Company, priority 2000, dated 2004).

Target: T1, human β3 adrenergic receptor (Homo sapiens, UniProt P13945)
T1 construct: expressed in transfected cells; host or cells: DXB-11 Chinese hamster ovary (CHO) cell line, stably transfected (phd expression vector)
Experiment: whole cell receptor coupled c-AMP assay, human β3 receptor in CHO cells (EC50, Emax relative to isoproterenol)
Format: cell-based
Details: % intrinsic activity relative to isoproterenol maximal response; average of at least 3 runs; c-AMP in transfected CHO cells
How it was run: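 Stably transfected DXB-11 CHO cells (20,000/well) were exposed to compound for 20 min at 37 °C in HBSS/HEPES buffer with 1 mM IBMX, pH 7.4. cAMP was measured by SPA. EC50 came from a four-parameter logistic fit, and Emax is the maximal response as a percentage of isoproterenol's.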

T1 sequence (P13945 whole entry): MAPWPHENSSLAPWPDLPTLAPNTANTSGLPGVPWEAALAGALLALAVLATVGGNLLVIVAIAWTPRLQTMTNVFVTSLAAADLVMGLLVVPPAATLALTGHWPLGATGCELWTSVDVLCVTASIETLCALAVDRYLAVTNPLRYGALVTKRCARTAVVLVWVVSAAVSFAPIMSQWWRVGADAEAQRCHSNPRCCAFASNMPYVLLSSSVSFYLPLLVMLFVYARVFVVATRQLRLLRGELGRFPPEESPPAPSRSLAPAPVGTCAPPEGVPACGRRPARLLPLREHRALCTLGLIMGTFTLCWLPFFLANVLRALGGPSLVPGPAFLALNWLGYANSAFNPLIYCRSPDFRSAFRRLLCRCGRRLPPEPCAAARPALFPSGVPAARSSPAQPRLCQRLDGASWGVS

Compound | Emax (%) ± SEM [%]
CC(C)(Cc1ccc(Oc2ccc(C(N)=O)cn2)cc1)NC[C@H](O)COc1ccccc1-c1ccco1.Cl [Example 412] | 74.4 ± 7.0
CC(C)(Cc1ccc(Oc2ccc(C#N)cn2)cc1)NC[C@H](O)COc1ccccc1-c1ccncc1 [Example 373] | 29.0 ± 6.8
CC(C)(Cc1ccc(Oc2ncccc2C#N)cc1)NC[C@H](O)COc1ccccc1-c1ccc(Cl)s1.O=C(O)C(F)(F)F [Example 414] | 65.7 ± 11.4
CC(C)(Cc1ccc(Oc2ccc(C#N)cn2)cc1)NC[C@H](O)COc1ccccc1-c1ccsc1 [Example 378] | 60.2 ± 3.2

Same assay, conditions: Emax ± SEM; average of at least 3 runs except as otherwise indicated; tested as the isolated form listed

Compound | Emax (%) ± SEM [%]
CC(C)(Cc1ccc(Oc2ncccc2C#N)cc1)NC[C@H](O)COc1ccccc1-c1ccoc1.Cl [Example 306] | 82.4 ± 4.0
CC(C)(Cc1ccc(Oc2ncccc2C(N)=O)cc1)NC[C@H](O)COc1ccccc1-c1ccoc1.Cl [Example 303] | 67.9 ± 6.1

Same assay, conditions: Emax ± standard error of the mean; average of at least 3 runs except where n = 1; compound tested in the isolated form listed

Emax (%) ± SEM | Compound
52.9 ± 7.4% | CCOC(=O)c1ccc(Oc2ccc(CC(C)(C)NC[C@H](O)COc3ccccc3-c3ccno3)cc2)c(Cl)c1.O=C(O)C(F)(F)F [Example 288]
74.5 ± 6.7% | CC(C)(Cc1ccc(Oc2cccnc2C#N)cc1)NC[C@H](O)COc1ccccc1-c1ccon1.Cl [Example 297]

The next lines start with the compound.

Compound | Emax (%) ± SEM
CC(C)(Cc1ccc(Oc2ccc(S(C)(=O)=O)cc2)cc1)NC[C@H](O)COc1ccccc1-c1ccno1.O=C(O)C(F)(F)F [Example 135] | 35.2 ± 4.3%
CC(C)(Cc1ccc(Oc2ccc(C(N)=O)cn2)cc1)NC[C@H](O)COc1ccccc1-c1ccon1.Cl [Example 32] | 54.2 ± 5.0%
CC(C)(Cc1ccc(Oc2ccc(S(C)(=O)=O)cc2Cl)cc1)NC[C@H](O)COc1ccccc1-c1nccs1.O=C(O)C(F)(F)F [Example 182] | 57.6 ± 7.1%
CCOC(=O)c1cccnc1Oc1ccc(CC(C)(C)NC[C@H](O)COc2ccccc2-c2cccs2)cc1.O=C(O)C(F)(F)F [Example 108] | 87.1 ± 11.9%
CC(C)(Cc1ccc(Oc2ncccc2C#N)cc1)NC[C@H](O)COc1ccccc1-c1cccs1 [Example 50] | 78.9 ± 2.5%
CCOC(=O)c1ccc(Oc2ccc(CC(C)(C)NC[C@H](O)COc3ccccc3-c3ccno3)cc2)c(F)c1.O=C(O)C(F)(F)F [Example 186] | 41.1 ± 8.2%
CC(C)(Cc1ccc(Oc2ncccn2)cc1)NC[C@H](O)COc1ccccc1-c1cccs1.O=C(O)C(F)(F)F [Example 150] | 69.8 ± 6.0%
CC(C)(Cc1ccc(Oc2ncccc2C(N)=O)cc1)NC[C@H](O)COc1ccccc1N1CCNCC1.Cl.Cl.Cl [Example 80] | 12.3 ± 0.2%
CC(C)(Cc1ccc(Oc2ccc(C#N)cn2)cc1)NC[C@H](O)COc1ccccc1-c1ccn[nH]1 [Example 8] | 33.7 n = 1%
CC(C)(Cc1ccc(Oc2ccc(C#N)cn2)cc1)NC[C@H](O)COc1ccccc1-c1nccs1 [Example 6] | 58.7 ± 1.8%
CC(C)(Cc1ccc(Oc2ncccc2C(N)=O)cc1)NC[C@H](O)COc1ccccc1-c1nncs1.O=C(O)C(=O)O [Example 97] | 52.4 ± 0.8%
CC(C)(Cc1ccc(Oc2ccc(C(F)(F)F)cc2Cl)cc1)NC[C@H](O)COc1ccccc1-c1nccs1.O=C(O)C(F)(F)F [Example 171] | 47.9 ± 6.5%
CC(C)(Cc1ccc(Oc2ncccc2C(N)=O)cc1)NC[C@H](O)COc1ccccc1-n1ccc(C=O)c1 [Example 273] | 40.3 ± 0.5%
CC(C)(Cc1ccc(Oc2ccc(S(C)(=O)=O)cc2)cc1)NC[C@H](O)COc1ccccc1-c1cscn1.Cl [Example 249] | 35.9 ± 2.9%
CC(C)(Cc1ccc(Oc2ccc(S(C)(=O)=O)cc2)cc1)NC[C@H](O)COc1cc(F)ccc1C1=CC(=O)OC1.Cl [Example 136] | <10%
